In paper PMC12348844, “Anti-Trypanosoma cruzi Potential of New Pyrazole-Imidazoline Derivatives” (Molecules, 2025):

Key:
[1] = Cytotoxicity assay, Vero cells (CellTiter-Glo); type: cell-based; conditions: African green monkey, mean ± SD
Method: Vero cells, obtained from the Rio de Janeiro Cell Bank (BCRT code 0245) and maintained through weekly subculturing with a dissociation solution containing 0.25% trypsin-EDTA, initiated once the monolayer reached an 80–100% confluence. Following harvesting, the cells were washed and resuspended in RPMI 1640 medium enriched with 10% fetal bovine serum (FBS). Cultures were maintained at 37 °C in a 5% CO2-humidified incubator. These cultures were used for drug screening assays and for producing culture-derived trypomastigotes of T. cruzi.
Cytotoxicity assays were performed using Vero cells, which were seeded at a density of 1.5 × 10^4 cells per well in white 96-well plates with clear bottoms. Following a 24 h adhesion period, the cultures were incubated at 37 °C in a 5% CO2 atmosphere. […] After 72 h of incubation, cell viability was assessed by adding CellTiter-Glo reagent (Promega Corporation, Madison, WI, USA), which induces cell lysis and reacts with the released ATP to produce luminescence. The resulting luminescence was measured using a Glomax Multi-Detection plate reader (Promega Corporation, Madison, WI, USA). The half-maximal inhibitory concentration (CC50) for cell viability was then calculated using GraphPad Prism software version 8.2.1.

[2] = Cytotoxicity in 3D cardiac spheroids (CellTiter-Glo); type: cell-based; conditions: Swiss Webster, mouse, 3D cardiac spheroids from fetal heart muscle cells, 15.6 to 500 µM
Method: (§1) Three-dimensional (3D) heart muscle cell cultures were obtained as previously described. Briefly, heart muscle cells were isolated from 18-day-old Swiss Webster mouse fetuses. The ventricular tissue was fragmented and enzymatically dissociated using a trypsin and collagenase type II solution. The isolated cells were seeded at a density of 2.5 × 10^4 cells/well in 96-well U-bottom microplates previously coated with 1% agarose. The cells were cultured in Dulbecco’s modified Eagle Medium (DMEM) enriched with 10% FBS, 2.5 mM CaCl2, 1 mM L-glutamine, 2% chicken embryo extract, and a cocktail of antibiotics. The cultures were maintained at 37 °C in a 5% CO2 atmosphere. After a 7-day culture period, the resulting fully developed spheroids were used to assess drug-induced cardiotoxicity and evaluate their efficacy against T. cruzi. […]
The cytotoxicity of the promising candidate was assessed using 3D cardiac spheroids, seeded at 2.5 × 10^4 cells per well. The cultures were treated with a series of concentrations as previously described, and the cell viability was measured using luminescence following the addition of CellTiter-Glo reagent (Promega Corporation, Madison, WI, USA). […] The data shown represents the mean value accompanied by standard deviations, calculated from at least three independent experiments, each performed in duplicate.

[3] = test system: T. cruzi cysteine protease; test: Cysteine protease activity in trypomastigote protein extract (Z-Phe-Arg-AMC); type: biochemical, Trypanosoma cruzi; conditions: 90 min, 37 °C, 33.3, 100 and 300 µM tested
Method: Total proteins from T. cruzi Dm28c-Luc were extracted using a lysis buffer [100 mM Tris-HCl pH 8.0, 150 mM NaCl, 10% glycerol, 0.5% Triton X-100]. The protein concentration was quantified using the Bradford assay, with bovine serum albumin (BSA) used to establish the standard curve. For the assessment of cysteine protease activity, 5 μg of the protein extract was incubated in an acetate buffer [10 mM sodium acetate, pH 5.0], supplemented with 1 mM dithiothreitol (DTT) in a final volume of 100 μL. The reaction used a fluorogenic peptide substrate, N-benzoyloxycarbonyl-L-phenylalanyl-L-arginine 7-amino-4-methylcoumarin (Z-FR-AMC), at a concentration of 60 μM. Incubation was conducted at 37 °C for 90 min, with relative fluorescence changes measured using a SpectraMax M2e spectrophotometer (Molecular Devices, Sunnyvale, CA, USA). Inhibition assays were performed using three concentrations (33.3, 100, and 300 µM) of the promising candidate and trans-epoxysuccinyl-L-leucylamido(4-guanidino)butane (E-64), each analyzed separately. A control was included using a low DMSO concentration (≤1%). Enzymatic activity was expressed in µmol/min/mg of protein, with residual activity presented as a percentage.

[4] = test system: T. cruzi Dm28c-Luc trypomastigotes; test: Anti-T. cruzi in vitro assay, trypomastigotes (luminescence); type: cell-based; conditions: Trypanosoma cruzi, 24 h, mean ± SD
Method: The genetically modified Trypanosoma cruzi, clone Dm28c (TcI), expressing luciferase (Dm28c-Luc), was kindly provided by Dr. Cristina Henriques from Oswaldo Cruz Institute—Fiocruz. The parasites were maintained using Vero cell cultures in RPMI 1640 medium enriched with 10% FBS. At 4 days post-infection (dpi), the trypomastigotes released into the culture supernatant were harvested, subjected to centrifugation at 800× g for 20 min at 4 °C, and quantified with a Neubauer chamber. The isolated trypomastigotes were subsequently used for phenotypic screening, drug efficacy assessments employing a 3D cardiac model, washout experiments to evaluate reversibility, drug combination studies, and enzymatic assays.
Drug susceptibility assays were performed on T. cruzi Dm28c-Luc, a genetically engineered parasite expressing luciferase. The drug screening used both trypomastigotes and intracellular amastigotes. Trypomastigotes (1 × 10^6 parasites/well) were added to white 96-well plates with clear bottoms. […] The luminescence was measured using a Glomax Multi-Detection plate reader (Promega Corporation, Madison, WI, USA).

[5] = test system: T. cruzi Dm28c-Luc in cardiac spheroids; test: Efficacy in T. cruzi-infected 3D cardiac microtissues; type: cell-based; conditions: Trypanosoma cruzi, 72 h, read-out: inhibition of parasite load in infected cardiac spheroids
Method: as §1, with “atmosphere.” for “atmosphere. After a 7-day culture period, the resulting fully developed spheroids were used to assess drug-induced cardiotoxicity and evaluate their efficacy against T. cruzi.”
The efficacy of the promising candidate was assessed using cardiac 3D microtissues. […] At the end of the experiment, luminescence was measured using a Glomax Multi-Detection plate reader (Promega Corporation, Madison, WI, USA) after adding luciferin solution, with results reported in arbitrary luminescence units (A.L.U). To enhance reliability and provide qualitative, orthogonal validation of these luminescence readings, we employed confocal fluorescence microscopy using 4′,6′-diamidino-2-phenylindole (DAPI) staining. […] Imaging was performed using a Zeiss LSM710 confocal fluorescence microscope (Carl Zeiss, Baden–Württemberg, Germany). […]

## FC(F)(F)c1ccc(-n2cc(C3=NCCN3)cn2)cc1 [1k, 1-(4-trifluoromethylphenyl)-4-(4,5-dihydro-1H-imidazol-2-yl)-1H-pyrazole]
[1]
  CC50 at 72 h: 244 ± 21.1 µM
[2]
  CC50 at 72 h: 173 ± 6.8 µM
[3]
  inhibition of cysteine protease activity: 3.76%
[4]
  IC50: 72.2 ± 10.3 µM
  IC90: > 100 µM
[5]; 28.8 µM
  inhibition at 28.8 µM: 90%
[5]; 57.6 µM
  inhibition at 57.6 µM: 94%
